{"source": "patent US12377110B2", "about": "“Fospropofol methods and compositions” (Epalex Corporation, priority 2019, dated 2025)", "key": {"[1]": {"experiment": "Study No. 15-4 (GLP): 14-day once daily oral gavage toxicity of fospropofol disodium", "type": "in vivo, Beagle dogs", "conditions": "both sexes, dog, in vivo; 14 days once daily oral gavage, Beagle dogs", "procedure": "(§1) The purpose of Study No. 15-4 (GLP) was to determine the potential toxicity of fospropofol in Beagle dogs when administered once daily by oral gavage for 14 days. […] Because the treatment-related clinical observations (consistent with the expected transient sedative actions of fospropofol) and effects on hematology and clinical chemistry parameters were considered nonadverse, the NOAEL was determined to be 160 mg/kg/day (3200 mg/m^2/day).\n(§2) As in the rat, CNS-related clinical signs were observed which were consistent with the established pharmacodynamic effects of fospropofol. […] The NOAEL was determined to be 160 mg/kg/day (3200 mg/m^2/d) in male and female Beagle dogs."}, "Beagle dogs [2]": {"test_system": "Beagle dogs", "experiment": "Study No. 15-4 (GLP): 14-day once daily oral gavage toxicity of fospropofol disodium", "type": "in vivo", "procedure": "as §1, §2"}, "[3]": {"experiment": "Study No. 15-2 (non-GLP): MTD and 7-day once daily oral gavage toxicity of fospropofol disodium", "type": "in vivo, Beagle dogs", "conditions": "dog, in vivo, Beagle dogs"}, "Beagle dogs [4]": {"test_system": "Beagle dogs", "experiment": "Study No. 15-2 (non-GLP): MTD and 7-day once daily oral gavage toxicity of fospropofol disodium", "type": "in vivo"}, "[5]": {"experiment": "Study No. 15-1 (non-GLP): MTD and 7-day once daily oral gavage toxicity of fospropofol disodium", "type": "in vivo, Sprague-Dawley rats", "conditions": "rat, in vivo; oral gavage, Sprague-Dawley rats", "source_text": "(§3) The purpose of Study No. 15-1 (non-GLP) was to determine the maximum tolerated close (MTD) of fospropofol when administered by oral gavage to Sprague-Dawley rats (Phase 1) and to evaluate the potential toxicity of fospropofol in Sprague-Dawley rats when administered once daily by oral gavage for 7 days (Phase 2)."}, "Sprague-Dawley rats": {"test_system": "Sprague-Dawley rats", "experiment": "Study No. 15-1 (non-GLP): MTD and 7-day once daily oral gavage toxicity of fospropofol disodium", "type": "in vivo", "source_text": "as §3"}, "[6]": {"experiment": "Study A17: PK of fospropofol and propofol after single oral dose of fospropofol disodium 800 mg in subjects with migraine", "procedure": "The study is planned to complete approximately 85 subjects. • Enrolled subjects will be asked to come to the study site for treatment when they experience a qualifying migraine headache. Dosing must occur within 4 hours after onset of the migraine symptoms. If treatment at the study site is not feasible or practicable within 4 hours after onset of migraine symptoms, subjects should use their usual medication for that headache and attempt to visit the clinic for treatment as soon as possible (within 4 hours) after onset of their next migraine headache. Dosing must occur within 60 days after enrollment (see Post-enrollment Period below). • At clinic check-in for treatment, study personnel will verify eligibility for closing regarding the criteria for a qualifying headache and adherence to post-enrollment study restrictions (see Eligibility for Dosing below). • Treatment will consist of a single oral dose of fospropofol disodium. […] Because the prevalence of migraine headaches is higher in women than in men, efforts will be made to enroll at least 50% women. • Subjects must meet the general inclusion and exclusion criteria listed below (Inclusion Criteria and Exclusion Criteria) at screening to be enrolled in the study. To be eligible for fospropofol disodium treatment after onset of a migraine headache, enrolled subjects must meet criteria specific to the presenting headache at clinic check-in (see Qualifying Headache below) and adhere to study restrictions specific to the period between enrollment and clinic check-in (see Post-enrollment Restrictions below). • Inclusion Criteria Subjects must meet all of the following criteria at screening to be enrolled in the study: • 1. Written informed consent approved by the Institutional Review Board (IRB) given before any study-related procedures are performed • 2. […] Complete abstinence alone can be used as a method of contraception. • 6. […] Able to comprehend the nature of the study, capable of giving written informed consent, and able to communicate effectively with clinic staff (as assessed by the investigator) • 8. Available to volunteer for the entire study duration and willing to adhere to all protocol requirements, including the post-enrollment restrictions (see Post-enrollment Restrictions below) • 9. Agrees not to post any information related to the study on any website or social media site (e.g., Facebook, Twitter, LinkedIn, Google+, etc.) until the entire trial has been completed • 10. Willing to forgo rescue medicine for at least 2 hours after initiation of treatment with study drug (see In-Clinic Rescue Medicine) • Exclusion Criteria Subjects to whom any of the following criteria apply at screening will be excluded: • 1. History of hemiplegic migraine (at any time in the past). • 2. History of headaches of any type occurring on ≥15 days/month during any of the 3 months prior to screening. • 3."}, "[7]": {"experiment": "Study No. 15-3 toxicokinetics of fospropofol and propofol in plasma", "type": "in vivo, Sprague-Dawley rats", "conditions": "for AUC(0-t): Propofol AUC0-6 hr", "procedure": "The purpose of Study No. 15-3 (GLP) was to determine the potential toxicity of fospropofol in Sprague-Dawley rats when administered once daily by oral gavage for 14 days. […] The cause of death for the three 250 mg/kg/day group main study females found dead could not be determined, but was considered related to the pharmacodynamic effects of fospropofol, based on the time of death relative to the time of close administration, and the clinical signs recorded before death. Clinical observations during the closing period for these animals included labored breathing, prostrate, splayed hindlimbs, uncoordinated movement, decreased activity, and eyes closed."}}, "data": [{"smiles": "CC(C)c1cccc(C(C)C)c1OCOP(=O)([O-])O.[Na+]", "note": "[fospropofol disodium]", "values": [{"measurement": "NOAEL at 14 days", "setting": "[1]", "result": 160, "unit": "mg/kg/day"}, {"measurement": "Tolerability", "setting": "Beagle dogs [2]; 0, 50, 100, and 160 mg/kg/day for 14 consecutive days", "result": "well tolerated at all close levels with no adverse findings"}, {"measurement": "Mortalities", "setting": "Beagle dogs [2]; 0, 50, 100, and 160 mg/kg/day for 14 days", "result": "no mortalities"}, {"measurement": "NOAEL", "setting": "Beagle dogs [2]; 14 days once daily oral gavage, Beagle dogs", "result": 3200, "unit": "mg/m^2/day"}, {"measurement": "Histopathology, all tissues including GIT-related", "setting": "Beagle dogs [2]; up to 160 mg/kg/day", "result": "no treatment-related histopathological findings"}, {"measurement": "Body weights, cardiovascular evaluations (ECGs, QTc), ophthalmology, clinical pathology, organ weights", "setting": "Beagle dogs [2]; up to 160 mg/kg/day for 14 days", "result": "no toxicologically significant changes"}, {"measurement": "MTD at 7 days", "setting": "[3]", "result": 160, "unit": "mg/kg/day"}, {"measurement": "MTD", "setting": "Beagle dogs [4]; Beagle dogs", "result": 3200, "unit": "mg/m^2/day"}, {"measurement": "Tolerability", "setting": "Beagle dogs [4]; single fospropofol doses up to 120 mg/kg or 120 and 160 mg/kg/day once daily for 7 days", "result": "tolerated at all closes with no mortality or adverse findings"}, {"measurement": "MTD at 7 days", "setting": "[5]", "result": 250, "unit": "mg/kg/day"}, {"measurement": "Mortality", "setting": "Sprague-Dawley rats; 150 mg/kg/day, Day 7, approximately 30 minutes postdose", "result": "one 150 mg/kg/day TK female was found dead"}, {"measurement": "MTD", "setting": "Sprague-Dawley rats; oral gavage, Sprague-Dawley rats", "result": 1500, "unit": "mg/m^2/day"}, {"measurement": "Tolerability", "setting": "Sprague-Dawley rats; oral gavage, single fospropofol doses up to 300 mg/kg or 150 and 250 mg/kg/day once daily for 7 days", "result": "well tolerated at all closes"}]}, {"smiles": "CC(C)c1cccc(C(C)C)c1O", "note": "[propofol, 2,6-diisopropylphenol]", "values": [{"measurement": "Variability in propofol log AUC1 accounted for by time-to-treatment", "setting": "[6]; 800 mg, 11 migraine subjects", "result": "~63", "unit": "%"}, {"measurement": "Variability in propofol log AUC2 accounted for by time-to-treatment", "setting": "[6]; 800 mg, 11 migraine subjects", "result": "~55", "unit": "%"}, {"measurement": "Variability in propofol log AUC4 accounted for by time-to-treatment", "setting": "[6]; 800 mg, 11 migraine subjects", "result": "~40", "unit": "%"}, {"measurement": "Variability in propofol log Cmax accounted for by time-to-treatment", "setting": "[6]; 800 mg, 11 migraine subjects", "result": "~57", "unit": "%"}, {"measurement": "Association between time-to-treatment and log propofol Cmax, AUC1, AUC2, AUC4", "setting": "[6]; 800 mg, 11 migraine subjects (all female)", "result": "statistically significant inverse association"}, {"measurement": "Decrease of geometric mean propofol AUC1 per hour of delay in time-to-treatment", "setting": "[6]; 800 mg, linear regression", "result": 67.2, "unit": "% per hour"}, {"measurement": "Decrease of geometric mean propofol AUC1 per minute of delay in time-to-treatment", "setting": "[6]; 800 mg, linear regression", "result": 1.84, "unit": "% per minute"}, {"measurement": "Decrease of geometric mean propofol AUC2 per hour of delay in time-to-treatment", "setting": "[6]; 800 mg, linear regression", "result": 62.5, "unit": "% per hour"}, {"measurement": "Decrease of geometric mean propofol AUC2 per minute of delay in time-to-treatment", "setting": "[6]; 800 mg, linear regression", "result": 1.62, "unit": "% per minute"}, {"measurement": "Decrease of geometric mean propofol AUC4 per hour of delay in time-to-treatment", "setting": "[6]; 800 mg, linear regression", "result": 47.7, "unit": "% per hour"}, {"measurement": "Decrease of geometric mean propofol AUC4 per minute of delay in time-to-treatment", "setting": "[6]; 800 mg, linear regression", "result": 1.08, "unit": "% per minute"}, {"measurement": "Decrease of geometric mean propofol Cmax per hour of delay in time-to-treatment", "setting": "[6]; 800 mg, linear regression", "result": 58.5, "unit": "% per hour"}, {"measurement": "Decrease of geometric mean propofol Cmax per minute of delay in time-to-treatment", "setting": "[6]; 800 mg, linear regression", "result": 1.45, "unit": "% per minute"}, {"measurement": "Ratio of mean propofol Auc4, migraine subjects (all female) to female healthy volunteers", "setting": "[6]; Study A17 vs. Study A16 800 mg Cohort, females only", "result": 91, "unit": "%"}, {"measurement": "Increase of propofol Cmax and AUC0-6hr with fospropofol dose", "setting": "[7]; Days 1 and 14", "result": "approximately close-proportional"}, {"measurement": "Propofol AUC0-6hr following repeated administration", "setting": "[7]; female rats", "result": "appeared to increase"}, {"measurement": "Propofol AUC0-6hr following repeated administration", "setting": "[7]; male rats", "result": "did not appear to change"}, {"measurement": "AUC(0-t)", "setting": "[7]; male, Sprague-Dawley, rat, plasma, po, 50 mg/kg, oral gavage fospropofol disodium, Male, 50 mg/kg, Day 1", "result": 219, "unit": "ng·h/mL"}, {"measurement": "AUC(0-t)", "setting": "[7]; male, Sprague-Dawley, rat, plasma, po, 50 mg/kg, oral gavage fospropofol disodium, Male, 50 mg/kg, Day 14", "result": 416, "unit": "ng·h/mL"}, {"measurement": "Cmax", "setting": "[7]; male, Sprague-Dawley, rat, plasma, po, 50 mg/kg, Propofol Cmax, oral gavage fospropofol disodium, Male, 50 mg/kg, Day 14", "result": 301, "unit": "ng/mL"}, {"measurement": "Tmax", "setting": "[7]; male, Sprague-Dawley, rat, plasma, po, 50 mg/kg, Propofol Tmax, oral gavage fospropofol disodium, Male, 50 mg/kg, Day 14", "result": 15, "unit": "min"}, {"measurement": "Dependence of systemic exposure on sex", "setting": "[7]; rats, 14 days oral gavage fospropofol disodium", "result": "greater exposure in females"}]}]}
